From the supplement of paper PMC8149375

Legend:
Settings in all cases: treatment: drug + dasatinib (fixed dose, not stated); 5 days
SN12C [1] = assay: AUC of dose-response viability curve, drug + dasatinib, normalised to DMSO (arbitrary (AUC of normalised viability)); higher = less growth inhibition
Description: (§1)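 Primary HTS combination arm: 8 RCC cell lines treated with 8 doses (up to 10 uM) of each library drug plus a fixed dose of dasatinib (dose not stated) for 5 days; viability read by CellTiter-Glo and normalised to DMSO. GI50 was fitted with XLfit, AUC is the area under the dose-response curve, and minimum viability is the lowest fraction of DMSO viability across doses.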

CAKI-1 [2] = assay: as above
Description: as §1

ACHN [3] = assay: as above
Description: as §1

UO-31 [4] = assay: as above
Description: as §1

786-O [5] = assay: as above
Description: as §1

769-P [6] = assay: as above
Description: as §1

TK-10 [7] = assay: as above
Description: as §1

A498 [8] = assay: as above
Description: as §1

SN12C [9] = assay: minimum viability across doses, drug + dasatinib, relative to DMSO (fraction); higher = less growth inhibition
Description: as §1

CAKI-1 [10] = assay: as above
Description: as §1

ACHN [11] = assay: as above
Description: as §1

UO-31 [12] = assay: as above
Description: as §1

786-O [13] = assay: as above
Description: as §1

769-P [14] = assay: as above
Description: as §1

TK-10 [15] = assay: as above
Description: as §1

A498 [16] = assay: as above
Description: as §1

SN12C [17] = assay: GI50 of drug in presence of dasatinib; higher = less potent
Description: as §1

CAKI-1 [18] = assay: as above
Description: as §1

ACHN [19] = assay: as above
Description: as §1

UO-31 [20] = assay: as above
Description: as §1

786-O [21] = assay: as above
Description: as §1

769-P [22] = assay: as above
Description: as §1

TK-10 [23] = assay: as above
Description: as §1

A498 [24] = assay: as above
Description: as §1

| Structure (SMILES) | AUC of dose-response viability curve (SN12C [1]) | AUC of dose-response viability curve (CAKI-1 [2]) | AUC of dose-response viability curve (ACHN [3]) | AUC of dose-response viability curve (UO-31 [4]) | AUC of dose-response viability curve (786-O [5]) | AUC of dose-response viability curve (769-P [6]) | AUC of dose-response viability curve (TK-10 [7]) | AUC of dose-response viability curve (A498 [8]) | minimum viability across doses (SN12C [9]) | minimum viability across doses (CAKI-1 [10]) | minimum viability across doses (ACHN [11]) | minimum viability across doses (UO-31 [12]) | minimum viability across doses (786-O [13]) | minimum viability across doses (769-P [14]) | minimum viability across doses (TK-10 [15]) | minimum viability across doses (A498 [16]) | GI50 of drug (SN12C [17]) | GI50 of drug (CAKI-1 [18]) | GI50 of drug (ACHN [19]) | GI50 of drug (UO-31 [20]) | GI50 of drug (786-O [21]) | GI50 of drug (769-P [22]) | GI50 of drug (TK-10 [23]) | GI50 of drug (A498 [24]) |
| --- | --- | --- | --- | --- | --- | --- | --- | --- | --- | --- | --- | --- | --- | --- | --- | --- | --- | --- | --- | --- | --- | --- | --- | --- |
| Nc1ncnc2c1c(-c1cccc(OCc3ccccc3)c1)cn2[C@H]1C[C@H](CN2CCCC2)C1 [NVP-ADW742] + Cc1nc(Nc2ncc(C(=O)Nc3c(C)cccc3Cl)s2)cc(N2CCN(CCO)CC2)n1 [dasatinib] | 2.44 | 2 | 1.77 | 2.57 | 2.33 | 2.45 | 2.44 | 3.18 | 0.48 | 0.0883 | 0.147 | 0.0171 | 0.172 | 0.278 | 0.124 | 0.296 | > 10000 nM | 1290 nM | 129 nM | 2490 nM | 3280 nM | 5140 nM | 3390 nM | 8960 nM |
| COc1ccc(-c2ccc3ncc4c(c3c2)n(-c2ccc(N3CCNCC3)c(C(F)(F)F)c2)c(=O)n4C)cn1.O=C(O)/C=C\C(=O)O [NVP-BGT226] + Cc1nc(Nc2ncc(C(=O)Nc3c(C)cccc3Cl)s2)cc(N2CCN(CCO)CC2)n1 [dasatinib] | 0.601 | 0.631 | 0.453 | 0.779 | 0.402 | 0.87 | 0.725 | 0.972 | 0.00253 | 0.00249 | 0.00153 | 0.0107 | 0.00462 | 0.00834 | 0.00345 | 0.0127 | 6.06 nM | 10.1 nM | 4.38 nM | 14.2 nM | 5.3 nM | 15.9 nM | 12.2 nM | 20 nM |
| Cc1ccc(C(=O)Nc2cccc(C(F)(F)F)c2)cc1Nc1nc(-c2cccnc2)nc2c1cnn2C [NVP-BHG712] + Cc1nc(Nc2ncc(C(=O)Nc3c(C)cccc3Cl)s2)cc(N2CCN(CCO)CC2)n1 [dasatinib] | 2.37 | 1.87 | 1.8 | 3.61 | 1.66 | 2.16 | 2.1 | 3.17 | 0.0536 | 0.026 | 0.126 | 0.00794 | 0.00229 | 0.0398 | 0.0343 | 0.0233 | 6860 nM | 506 nM | 511 nM | 3110 nM | 491 nM | 1640 nM | 1070 nM | 4420 nM |
| Cl.Cl.Fc1cc(-c2cccc3ncc(-c4cnn(C5CCNCC5)c4)nc23)cc(F)c1CN1CCOCC1 [NVP-BSK805] + Cc1nc(Nc2ncc(C(=O)Nc3c(C)cccc3Cl)s2)cc(N2CCN(CCO)CC2)n1 [dasatinib] | 2.15 | 1.9 | 1.64 | 3.35 | 1.85 | 2.29 | 2.08 | 3.09 | 0.127 | 0.0163 | 0.0139 | 0.0214 | 0.00448 | 0.37 | 0.108 | 0.0371 | 2430 nM | 962 nM | 380 nM | 2940 nM | 44.1 nM | 3940 nM | 1420 nM | 5130 nM |
| Cn1cc(-c2ccc3ncc(Cc4ccc5ncccc5c4)n3n2)cn1 [NVP-BVU972] + Cc1nc(Nc2ncc(C(=O)Nc3c(C)cccc3Cl)s2)cc(N2CCN(CCO)CC2)n1 [dasatinib] | 2.12 | 1.71 | 1.28 | 3.81 | 1.79 | 2.06 | 2.03 | 3.44 | 0.0116 | 0.0417 | 0.0103 | 0.0147 | 0.00818 | 0.0263 | 0.119 | 0.0158 | 1900 nM | 303 nM | 15.4 nM | 2040 nM | 361 nM | 1150 nM | 836 nM | 1440 nM |
| CNC(=O)c1ccccc1Nc1nc(Nc2ccc(N3CCOCC3)cc2OC)ncc1Cl [NVP-TAE226] + Cc1nc(Nc2ncc(C(=O)Nc3c(C)cccc3Cl)s2)cc(N2CCN(CCO)CC2)n1 [dasatinib] | 1.91 | 1.34 | 1.19 | 2.35 | 1.1 | 1.98 | 1.64 | 3.26 | 0.132 | 0.0135 | 0.0673 | 0.00626 | 0.00641 | 0.085 | 0.0355 | 0.201 | 335 nM | 107 nM | 27.4 nM | 334 nM | 26.7 nM | 750 nM | 202 nM | 5880 nM |
| COc1ccc(C2=NC(c3ccc(Cl)cc3)C(c3ccc(Cl)cc3)N2C(=O)N2CCNC(=O)C2)c(OC(C)C)c1 (stereo not drawn) [Nutlin-3] + Cc1nc(Nc2ncc(C(=O)Nc3c(C)cccc3Cl)s2)cc(N2CCN(CCO)CC2)n1 [dasatinib] | 2.62 | 2.15 | 1.89 | 4.46 | 2.83 | 2.54 | 2.5 | 3.61 | 0.712 | 0.168 | 0.2 | 0.583 | 0.707 | 0.519 | 0.665 | 0.905 | > 10000 nM | 2420 nM | 2000 nM | > 10000 nM | > 10000 nM | > 10000 nM | > 10000 nM | > 10000 nM |
